In data set [1] the test system is naive murine CD4+ cells. In words: Activation of naive murine CD4+ T cells in vitro (CFSE, cytofluorimeter, ELISA). Type of data set: cell-based, mouse. From the text: The lymphocytes are cells of the immune defences that direct and amplify the response to attack. Their imbalance or malfunction is also at the root of autoimmune diseases. Successful increase in the ratio in favour of Treg cells can restore the equilibrium of the immune response and combat the resultant disorders. We analysed the activation of isolated naive murine CD4+ cells in the cytofluorimeter for the phenotype CD4+CD62L+CD44−CD25−. The cells were labelled with “5,6-carboxyfluorescein diacetate succinimyl ester” (CFSE) and we evaluated cellular proliferation in quantitative acquisitions with the cytofluorimeter based on the dilution of fluorescence, which depends on the proliferative activity of the cell.

For data set [2], the system named is female NOD mice. In words: Type 1 diabetes spontaneous model. The conditions noted are these: 0.25 mg intravenously 5 days every two weeks from 11 weeks of age; at the 28th week; carriers 7 out of 14. Type of data set: in vivo, mouse. From the text:
NOD (“non-obese diabetic”) mice represent the spontaneous murine model of type 1 diabetes (Adorini et al., 2002). The loss of metabolic control characterized by hyperglycaemia and glycosuria, which defines the disease clinically, is preceded by a long phase called pre-diabetes, during which the response to specific autoantigens of the beta cells of the pancreas develops subclinically, but progressively. In the NOD mice, the disease begins clinically around the 14th week of age when the infiltrating inflammatory cells invade the islets and develop an aggressive insulitis, which leads to destruction of the beta cells and causes hyperglycaemia (Anderson and Bluestone, 2005). The autoreactive CD4+ and CD8+ T cells play a fundamental role in the pathogenesis of type 1 diabetes.
We treated female NOD mice at 11 weeks of age with 0.25 mg […] or carriers intravenously for 5 days every two weeks and monitored glycaemia every week. Only one out of 8 mice treated with […] developed diabetes at the 28th week of age, whereas 7 out of 14 mice treated with carriers developed diabetes or died starting from the 14th week of age (FIG. 32).

The test system of data set [3] is Swiss CD1 mice. Put plainly: CFA thermal hyperalgesia, synergy with opioids. How it is done: We compared the activity of […] with that of the opioids to study its analgesic effect.
Mice of the Swiss CD1 type were given a single intraplantar injection of 30 microlitres of complete Freund adjuvant (CFA) in the right plantar pad. Intraperitoneal injection of […] and/or of morphine (morphine chlorhydrate, Molteni) was administered 24 hours after injection of CFA according to the following scheme:
1. […] 7.5 mg/kg; 2. […] 10 mg/kg; 3. […] 200 mg/kg; 4. […] 50 mg/kg; 5. Morphine 0.4 mg/kg; 6. Morphine 2.5 mg/kg; 7. Morphine 1 mg/kg; 8. Morphine 0.4 mg/kg; 9. Morphine 1 mg/kg+[…] 10 mg/kg; 10. Morphine 0.4 mg/kg+[…] 10 mg/kg; 11. Morphine 1 mg/kg+[…] 10 mg/kg; 12. Morphine 0.4 mg/kg+[…] 10 mg/kg; 13. Morphine 4 mg/kg.
Groups 9-11 and 10-12 have the same doses respectively; they were repeated to confirm the results.
Thermal hyperalgesia was assessed using the Ugo Basile apparatus (Comerio, Italy).
The test was carried out before (baseline values) injection of CFA, after injection of CFA and 0.5, 1, 2, 3, 6 and 12 hours after injecting the drug in the inflamed pad.

Data set [4] has as its system Tg2576 mice. In words: Alzheimer's transgenic murine model Tg2576: behavioural tests and β-amyloid plaques. Type of data set: in vivo, mouse. The conditions noted are these: 4 and 15 mg/kg i.p. daily, 6th to 13th month. As for the experimental part: In the transgenic murine model Tg2576 there is no loss of neurons, but there is neuronal deficit and accumulation of β-amyloid plaques. The production of peptides begins to increase rapidly starting from the 6th month of age, accompanied by a progressive cognitive decline. Around the 7th to 8th month, the first plaques develop, which are then diffuse at the 12th month.
The mice were treated with […] at 4 and at 15 mg/kg i.p. daily starting from the 6th month of age up to the 13th. Between the 9th and 10th month and between the 12th and 13th month the mice were submitted to behavioural tests, at the 13th month they were sacrificed and immunohistochemical analyses were performed on brain samples to verify modulation of the β-amyloid plaques.

Data set [5] has as its system male Fischer inbred rats. In words: Model of arthritis: complete Freund adjuvant paw inflammation, plantar test (Hargreaves). The class given is in vivo, rat. As for the experimental part: […] was tested for possible antinociceptive and anti-inflammatory activity in a murine model of arthritis.
Unilateral inflammation of the posterior plantar pad of the rat (male Fischer inbred rats) was induced with a local injection of complete Freund adjuvant.
[…], 4 mg/kg, was administered intraperitoneally.
The rats were put in a transparent plastic chamber and were left to acclimatize for 5 minutes before the test.
Thermal stimulus, applied to the surface of the plantar pads of the rats, was produced by a halogen lamp (64607 OSRAM) of 8 V-50 W, through the plastic box; the diameter of the radiant beam measured about 12 mm. The time for withdrawal of the animal's right plantar pad was measured before and after injection of […].
A comparison was conducted on the anti-hyperalgesic and anti-inflammatory effect of a cortisone derivative, methylprednisolone acetate, administered intraperitoneally (5 mg/kg).

The test system of data set [6] is diabetic C57BL/6 mice transplanted with BALB/c islets. Put plainly: Survival of allogenic pancreatic islets in murine transplant model. Type of data set: in vivo, mouse. The conditions noted are these: 9 mg/kg or 30 mg/kg i.p. daily; FIG. 24. How it is done: C57BL/6 mice were made diabetic by administration of streptozotocin (170 mg/kg) and, following transplant of allogenic pancreatic islets, were treated with […].
The pancreatic islets, isolated from the BALB/c mouse, were inoculated in the diabetic mouse according to the procedure described by Abde R et al. (Diabetes 51 (8): 2489-2495). The glycaemia values were measured daily for monitoring the functionality of the transplanted cells.
The significance of rejection of transplanted cells that occurred was attributed to glycaemia values above 250 mg/dl, obtained in two consecutive measurements. After the cells were implanted (day 0), the mice were treated with intraperitoneal injections of 9 mg/kg or 30 mg/kg of […] daily.
The combination of […] and Rapamycin, currently the most used of the immunosuppressive drugs, was tested on the same animal model.
Both drugs were administered 6 times (day 0, day 2, day 4, day 6, day 8, day 10); […] was administered at 2 doses.

Data on one compound can be found in patent US20160129005A1, “ADENINE DERIVATIVES HAVING IMMUNOMODULATING ANTI-INFLAMMATORY AND ANALGESIC ACTIVITY” (MEDESTEA RESEARCH & PRODUCTION S.p.A., priority 2011, published 2016).

Take `C=C(C=O)OC(C=O)n1cnc2c(N)ncnc21` (stereo not drawn) [2-[1-(6-aminopurin-9-yl)-2-oxoethoxy]prop-2-enal]: the “number of proliferating cells (CFSE dilution)” value in data set [1] (300 μM, FIG. 21) is “more than ten-fold reduction”. The “secretion of interleukin-2” value in data set [1] (ELISA in culture supernatant at 24 h) is on record as “significantly reduces”. Besides, in data set [1] (FIG. 21), the “expression of CD44 and shedding of L-selectin CD62L (cells CD44 positive, CD62L negative)” value was “significantly reduces”; the “side scatter of the cells (parameter of activation of CD4 cells)” value was “reduced”. Moreover, the “mice that developed diabetes” value in data set [2] is on record as “one out of 8”. For the same compound, the “values of nociception (thermal hyperalgesia)” value in data set [3] (IMMUFLAM alone i.p., all the doses tested) is reported as “brings back the values of nociception to the baseline values”. In addition, the “obsessive-compulsive disorders (behaviour)” value in data set [3] (mice treated with IMMUFLAM alone) is given as “did not display any behaviour of this kind”. For the same compound, the “score obtained in moving to Y (Y-maze test)” value in data set [4] is “very encouraging”. Besides, the “finding and climbing onto the platform, hidden or visible (water maze test)” value in data set [4] (vs vehicle) is “significantly faster than the control”. In data set [5] (4 mg/kg intraperitoneally, to levels comparable to baseline, FIG. 7), the “time for withdrawal of the plantar pads (thermal stimulus)” value is listed as “significantly increases the time for withdrawal of the plantar pads”. The “action relative to methylprednisolone acetate” value in data set [5] (IMMUFLAM 4 mg/kg i.p. vs methylprednisolone acetate 5 mg/kg i.p.) is “more effective action”. Further, the “rejection of transplanted islets (glycaemia above 250 mg/dl twice)” value in data set [6] is on record as “no rejection up to day 100”.
